Results on one molecule are retold here after patent US20250115595A1, “INHIBITORS OF HYPOXIA-INDUCIBLE FACTORS” (The Johns Hopkins University, priority 2021, published 2025).

One data set concerns HIF-1α and HIF-2α. Description: HIF accumulation in hypoxic D120 hiPSC-derived retinal organoids. In kind it is cell-based, human. The note with it: 1% O2, 12 hours. As to the method: To assess the therapeutic potential of 32-134D for diabetic patients, human induced pluripotent stem cell (hiPSC)-derived 3-dimensional (3D) retinal organoids were treated with 32-134D. It has been previously reported that hiPSC-derived 3D retinal organoids cultured under hypoxic conditions (1% O2) behave similar to ischemic human retinal tissue with increased accumulation of both HIF-1α and HIF-2α (J. Zhang et al., J Clin Invest 131 (2021)). By 120 days of differentiation (D120), the inner and outer retinal layers are clearly defined (FIGS. 32A and 32B) and contain the precursors of the major retinal cell types, including outer retina photoreceptors (expressing recoverin), few newly differentiating bipolar cell precursors (lacking expression of recoverin and Pax6), amacrine cells (expressing high levels of Pax6), as well as Müller cells (expressing CRALBP; FIGS. 32C and 32D).
Retinal organoids: An hiPSC line derived from CD34+ cord blood was used in this study (A18945, ThermoFisher Scientific) (P. W. Burridge et al., 2011, PLoS One 6, e18293). Undifferentiated hiPSCs and derived retinal organoids were routinely tested for Mycoplasma contamination by PCR. Cell culture, retinal differentiation, and organoid formation were conducted as previously described (X. Zhong et al., 2014, Nat Commun 5, 4047). Retinal organoids at 120 days of differentiation were used for experiments. […]

A short description of data set [1]: Mouse pharmacokinetics in neurosensory retina after intraocular injection. Format: in vivo. As to the method:
Pharmacokinetic analysis of 32-134D in the neurosensory retina following intraocular administration was determined by liquid chromatography and tandem mass spectrometry (LC-MS/MS) to quantify the concentration of 32-134D in retinal tissue over 14 days following a single 70-ng intraocular injection of 32-134D (see Methods of all parameters). […] The total exposure (area under the curve or AUClast) was 72.3 nmol*day/g.
Mouse pharmacokinetics: C57BL/6 mice were administered 32-134D at 70 ng or 280 ng as a single intraocular injection. Mice (at least 3 mice per time point) were euthanized at 1, 3, 7, or 14 days after injection. For the 280-ng dose, a 10-day time point was added. 32-134D was quantified in retina by LC-MS/MS as previously described (S. Salman et al., 2022, J Clin Invest 132) with the following modifications. Retina tissue samples were homogenized in […] of 1×PBS (pH 7.4) before extraction. The standard curve and quality control samples were prepared in 1×PBS as a surrogate matrix. Retina tissue samples were then quantitated in nmol/g as: nominal concentration (nM)×initial dilution ([tissue weight (mg)+volume of solvent (μl)]/tissue weight (mg)). For all samples <10 nM, the value was reported as below the limits of detection. If at least on samples was >10 nM and one was <10 nM, then one half that value (5 nM) was imputed to calculate the concentration for that specimen and utilized in the average and standard deviation calculations.
Pharmacokinetic parameters: These were calculated from mean concentration-time data using noncompartmental methods in Phoenix WinNonlin version 8.3 (Certara, Princeton, NJ, USA). The Cmax and time to Cmax (Tmax) were the observed values. The AUClast was calculated using the log-linear trapezoidal method to the last quantifiable time point. The λz was determined from at least 3 points on the slope of the terminal phase of the concentration-time profile using a 1/y2 weighting factor. The T1/2 was determined by dividing 0.693 by […]. T1/2 was not reported if the correlation coefficient (r2) for λz was less than 0.9.
Bioanalytical method for mouse pharmacokinetics: Retina tissue samples were homogenized in 200 μL of 1×PBS (pH 7.4) before extraction. The standard curve and quality control samples were prepared in 1×PBS as a surrogate matrix for all matrices. Tissue homogenate or PBS (25 μL) was added to a borosilicate glass test tube and mixed with 150 μL of acetonitrile containing the internal standard (1 ng/mL of EXP-3179). For blank samples, 150 μL of acetonitrile was added without internal standard. Samples were vortex-mixed and centrifuged (1200×g for 5 minutes at ambient temperature) and transferred to an autosampler vial. […] The column effluent was monitored using an AB Sciex Triple Quadrupole 5500 mass spectrometer. […]

The structures appear in SMILES notation.

`Brc1ccc2c(-c3csc(-c4c[nH]c5c(Br)cccc45)n3)c[nH]c2c1` [Compound 32-134D, 4-(6-bromo-1H-indol-3-yl)-2-(7-bromo-1H-indol-3-yl)thiazole]: the “accumulation of HIF-1α and HIF-2α protein” value in the data set on HIF-1α and HIF-2α is “effectively prevented”. For the same molecule, the “time retina concentration exceeded in vitro IC50 of 3.5 μM” value in data set [1] (single 70-ng intraocular injection) turned out to be 5.25 days. The “total exposure (AUClast) in neurosensory retina” value in data set [1] (single 70-ng intraocular injection, 14 days) came to 72.3 nmol·days/g. Besides, the “terminal half-life (T1/2) in retina” value in data set [1] (single intraocular injection 280 ng) worked out at 43.2 h. For the same molecule, in data set [1] (single intraocular injection 280 ng, through 14 days), the “AUClast in neurosensory retina” value turned out to be 147 nmol·days/g.
